How the values were obtained:
[1] = tested on: corneal endothelial cells; experiment: Western blotting of cyclin dependent kinase inhibiting factors and G1/S transition molecules in cultured corneal endothelial cells; format: cell-based, human
[2] = tested on: human corneal endothelial cells; experiment: Ki67 immunostaining of cultured human corneal endothelial cells; format: cell-based; conditions: 10 μM; after 3 days; vs control
Method: (§1) *Human corneal endothelial cells (HCEC, where the cells were obtained and culturing method thereof): HCEC was cultured as follows. In short, Descemet's membrane including corneal endothelial cells was peeled off from a corneal for research purchased from the Seattle Eye Bank, and the corneal endothelial cells were mechanically peeled off with a basal membrane. After collagenase (ROCHE catalog No: 10 103 586 001) was used to detach and collect the corneal endothelial cell from the basal membrane (typically 1 mg/mL collagenase A (Roche Applied Science) was used for treatment at 37° C. for 2 hours), the cells were subjected to primary culture. The medium used was Opti-MEM I Reduced-Serum Medium, Liquid (INVITROGEN catalog No.: 31985-070) to which 8% fetal bovine serum (FBS) (BIOWEST, catalog No.: S1820-500), […] of CaCl2.2H2O (SIGMA catalog No.: C7902-500G), 0.08% of chondroitin sulfate (SIGMA catalog No.: C9819-5G), 20 μg/ml of ascorbic acid (SIGMA catalog No.: A4544-25G), 50 μg/ml of gentamicin (INVITROGEN catalog No.: 15710-064) and 5 ng/ml of EGF (INVITROGEN catalog No.: PHG0311) were added and acclimated for a 3T3 feeder cell. […] Immunostaining was applied to the cells for observation with a fluorescence microscope. […]

[3] = tested on: corneal endothelial cells; experiment: Western blot of apoptosis molecules after UV irradiation; format: cell-based; conditions: UV 100 J/m^2, 10 μM
Method: as §1, with “cell. Specifically, after digestion at 37° C., HCEC obtained from individual corneas was resuspended in a culture medium and plated on a well of a 12-well plate coated with FNC Coating Mix®. The culture medium was prepared in accordance with a partially-modified disclosed protocol. In short, a basal cultural medium containing OptiMEM-I (Life Technologies), 8% FBS, 5 ng/mL of epithelial growth factor (EGF) (Sigma-Aldrich Co., St. Louis, Mo.), 20 μg/mL of ascorbic acid (Sigma-Aldrich), 200 mg/L calcium chloride (Sigma-Aldrich), 0.08% chondroitin sulfate (Wako Pure Chemical Industries, Osaka) and 50 μg/mL of gentamicin was prepared and an acclimated medium was collected after inactivated 3T3 fibroblasts were cultured. The 3T3 fibroblasts were inactivated as previously described.” for “cell.”

[4] = Western blotting after 20 days, 10 μM and 30 μM vs control
[5] = Western blotting, 10 μM, after 12 hours and 24 hours

SMILES: C[S+]([O-])c1ccc(-c2nc(-c3ccncc3)c(-c3ccc(F)cc3)[nH]2)cc1 (stereo not shown) [SB203580, 4-(4-fluorophenyl)-2-(4-methylsulfinylphenyl)-5-(4-pyridyl)-1H-imidazole]
- expression of p16 [1, 4]: suppressed
- expression of p21 [1, 4]: suppressed
- expression of p27 [1, 4]: suppressed
- Rb protein phosphorylation (p-pRb) [1, 5]: promoted
- cyclin D1 expression [1, 5]: promoted
- cyclin D3 expression [1, 5]: promoted
- Expression of Ki67 (Ki67 positive cells) [2]: significantly more cells
- activation by cleavage of PARP due to UV irradiation [3]: suppresses
- activation by cleavage of caspase 3 due to UV irradiation [3]: suppresses
- phosphorylated histone H2AX induced by UV irradiation [3]: suppresses
